The values below come from patent US11649212B2, “Inhibitors of indoleamine 2,3-dioxygenase and methods of their use” (BRISTOL-MYERS SQUIBB COMPANY, priority 2017, dated 2023).

T1 sequence (P14902 whole entry): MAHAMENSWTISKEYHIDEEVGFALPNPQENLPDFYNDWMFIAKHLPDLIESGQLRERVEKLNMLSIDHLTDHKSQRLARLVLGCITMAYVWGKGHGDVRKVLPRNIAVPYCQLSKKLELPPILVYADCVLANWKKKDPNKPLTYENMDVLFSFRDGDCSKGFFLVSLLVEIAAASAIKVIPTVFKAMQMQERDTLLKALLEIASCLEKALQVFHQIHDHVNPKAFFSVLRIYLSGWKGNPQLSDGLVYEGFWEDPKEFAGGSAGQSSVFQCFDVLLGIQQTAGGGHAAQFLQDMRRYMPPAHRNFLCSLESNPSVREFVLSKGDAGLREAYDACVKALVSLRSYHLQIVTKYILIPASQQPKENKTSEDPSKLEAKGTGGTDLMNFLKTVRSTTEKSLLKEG

The first assay concerns the target T1, Indoleamine 2,3-Dioxygenase (IDO) (Homo sapiens, UniProt P14902).
T1 construct: endogenous in cells; host or cells: HeLa (ATCC CCL-2), stimulated with IFNγ 25 ng/mL
The experiment in a line: HeLa cell-based indoleamine 2,3-dioxygenase (IDO) assay (kynurenine production). The settings on record: HeLa cells, IFNγ 25 ng/mL, 48 hour incubation, kynurenine absorbance at 480 nm. Here is the method:
Assessment of Inhibitor Activity in HeLa Cell-Based Indoleamine 2,3-Dioxygenase (IDO) Assay:
HeLa (ATCC® CCL-2) cells were obtained from the ATCC® and cultured in Dulbecco's Modified Eagle Medium supplemented with 4.5 g/L glucose, […] (#10-013-CV, Corning), 2 mM L-alanyl-L-glutamine dipeptide (#35050-061, Gibco), 100U/mL penicillin, 100 μg/mL streptomycin (#SV30010, HyClone) and 10% fetal bovine serum (#SH30071.03 HyClone). Cells were maintained in a humidified incubator at 37° C. in 5% CO2.
IDO activity was assessed as a function of kynurenine production as follows: HeLa cells were seeded in a 96-well culture plate at a density of 5,000 cells/well and allowed to equilibrate overnight. After 24 hours, the media was aspirated and replaced with media containing IFNγ (#285-IF/CF, R&D Systems) at a final concentration of 25 ng/mL. A serial dilution of each test compound was added to the cells in a total volume of 200 μL of culture medium. After a further 48 hour incubation, 170 μL of supernatant was transferred from each well to a fresh 96-well plate. 12.1 μL of 6.1N trichloroacetic acid (#T0699, Sigma-Aldrich) was added to each well and mixed, followed by incubation at 65° C. for 20 minutes to hydrolyze N-formylkynurenine, the product of indoleamine 2,3-dioxygenase, to kynurenine. The reaction mixture was then centrifuged for 10 mins at 500×g to sediment the precipitate. 100 μL of the supernatant was transferred from each well to a fresh 96-well plate. 100 μl of 2% (w/v) p-dimethylaminobenzaldehyde (#15647-7, Sigma-Aldrich) in acetic acid (#A6283, Sigma-Aldrich) was added to each well mixed and incubated at room temperature for 20 mins. Kynurenine concentrations were determined by measuring absorbance at 480 nm and calibrating against an L-kynurenine (#K8625, Sigma-Aldrich) standard curve using a SPECTRAMAX® M2e microplate reader (Molecular Devices). The percentage activity at each inhibitor concentration was determined and IC50 values assessed using nonlinear regression.
Consider `CCC(C(=O)NC1[C@H]2C[C@@H]3C[C@@H](C[C@H]1C3)C2)C1CCN(Cc2cccc(C(F)(F)F)n2)CC1` (single isomer, unassigned) [Example 22, N-(Adamantan-2-yl)-2-(1-((6-(trifluoromethyl)pyridin-2-yl)methyl)piperidin-4-yl)butanamide], for which half-maximal inhibition (IC50) required 1000 nM.
On to `C[C@@H](C(=O)NC12CC3CC(C)(CC(C)(C3)C1)C2)[C@H]1CC[C@@H](c2ccnc3ccc(F)cc32)CC1` [Example 23, (cis)-(2R)—N-(3,5-dimethyladamantan-1-yl)-2-(4-(6-fluoroquinolin-4-yl)cyclohexyl)propanamide], for which half-maximal inhibition (IC50) was put at 14 nM.
Same read-out and setting: then `CC1(CC(=O)NC23CC4CC(CC(C4)C2)C3)CCN(c2ccnc3ccc(F)cc23)CC1` [Example 16, N-((3s,5s,7s)-Adamantan-1-yl)-2-(1-(6-fluoroquinolin-4-yl)-4-methylpiperidin-4-yl)acetamide], with 31 nM; and `COc1ccc(CN(C(=O)NC2CCCCC2)[C@H]2CC[C@H](c3ccccc3)CC2)cc1` [Example 13, 3-cyclohexyl-1-(4-methoxybenzyl)-1-((1r,4r)-4-phenylcyclohexyl)urea], with 66 nM; and `C[C@@H](NC(=O)C12CCC(Cl)(CC1)CC2)[C@H]1CC[C@@H](c2ccnc3ccc(F)cc32)CC1` [Example 1, 4-chloro-N—((R)-1-((cis)-4-(6-fluoroquinolin-4-yl)cyclohexyl)ethyl)bicyclo [2.2.2]octane-1-carboxamide], with 24 nM.
Regarding `C[C@@H](NC(=O)C1CC(F)(F)C1)[C@H]1CC[C@@H](c2ccnc3ccc(F)cc32)CC1` [Example 7, 3,3-difluoro-N-((R)-1-((1s,4S)-4-(6-fluoroquinolin-4-yl)cyclohexyl)ethyl)cyclobutanecarboxamide], it took 550 nM to reach half-maximal inhibition (IC50).
For the molecule `CCC(C(=O)NC1[C@H]2C[C@@H]3C[C@@H](C[C@H]1C3)C2)C1CCN(Cc2cccc(C(F)(F)F)n2)CC1` (single isomer, unassigned) [Example 21, N-(Adamantan-2-yl)-2-(1-((6-(trifluoromethyl)pyridin-2-yl)methyl)piperidin-4-yl)butanamide], the midpoint of inhibition, the IC50, lay at 20 nM.
The same measure, in the same setting: then `C[C@@H](NC(=O)N1CCN(c2ccccc2)CC1)[C@H]1CC[C@@H](c2ccnc3ccc(F)cc32)CC1` [Example 4, N—((R)-1-((1s,4 S)-4-(6-Fluoroquinolin-4-yl)cyclohexyl)ethyl)-4-phenylpiperazine-1-carboxamide], with 18 nM.
Turning to `C[C@@H](NC(=O)C1CCCCC1)[C@H]1CC[C@@H](c2ccnc3ccc(F)cc32)CC1` [Example 5, N-((R)-1-((1s,4S)-4-(6-fluoroquinolin-4-yl)cyclohexyl)ethyl)cyclohexanecarboxamide], it took 11 nM to reach half-maximal inhibition (IC50).
For the molecule `C[C@@H](NC(=O)C1CCN(c2ccc(F)cc2)CC1)[C@H]1CC[C@@H](c2ccnc3ccc(F)cc32)CC1` [Example 2, 1-(4-Fluorophenyl)-N—((R)-1-((1s,4S)-4-(6-fluoroquinolin-4-yl)cyclohexyl)ethyl) piperidine-4-carboxamide], the midpoint of inhibition, the IC50, lay at 22 nM.

The target in the next assay is T2, human IDO1 (Homo sapiens, UniProt P14902).
T2 construct: expressed in transfected cells
T2 sequence (P14902 whole entry): as above
The experiment in a line: IDO inhibition assay in human IDO1/HEK293 cells. Format: cell-based. The settings on record: HEK293 cells stably expressing human IDO1, 20 hours incubation, absorbance at 490 nm; read-out: IDO1 HEK Human IC50. The method, then: HEK293 cells were transfected with a pCDNA-based mammalian expression vector harboring human IDO1 cDNA (NM 002164.2) by electroporation. They were cultured in medium (DMEM with 10% FBS) containing 1 mg/ml G418 for two weeks. Clones of HEK293 cells that stably expressed human IDO1 protein were selected and expanded for IDO inhibition assay.
The human IDO1/HEK293 cells were seeded at 10,000 cells per 50 μL per well with RPMI/phenol red free media contains 10% FBS in a 384-well black wall clear bottom tissue culture plate (Matrix Technologies LLC) 100 nL of certain concentration of compound was then added to each well using ECHO liquid handling systems. The cells were incubated for 20 hours in 37° C. incubator with 5% CO2.
The compound treatments were stopped by adding trichloroacetic acid (Sigma-Aldrich) to a final concentration at 0.2%. The cell plate was further incubated at 50° C. for 30 minute. The equal volume supernatant (20 μL) and 0.2% (w/v) Ehrlich reagent (4-dimethylaminobenzaldehyde, Sigma-Aldrich) in glacial acetic acid were mixed in a new clear bottom 384-well plate. This plate was then incubated at room temperature for 30 minute. The absorbance at 490 nm was measured on Envision plate reader.
Compound IC50 values were calculated using the counts of 500 nM of a reference standard treatment as one hundred percent inhibition, and counts of no compound but DMSO treatment as zero percent inhibition.
`C[C@@H](NC(=O)[C@H]1C[C@@H](F)C1)[C@H]1CC[C@@H](c2ccnc3ccc(F)cc32)CC1` [Example 9, (1s,3S)-3-fluoro-N-((R)-1-((1s,4S)-4-(6-fluoroquinolin-4-yl)cyclohexyl)ethyl)cyclobutanecarboxamide]: the half-inhibitory concentration (IC50) (in general, the concentration that inhibits the measured activity by half) was found to be 620 nM.
`C[C@@H](NC(=O)C1CC(F)C1)C1CCC(c2ccnc3ccc(F)cc23)CC1` (stereo partly drawn) [Example 8, (1r,3R)-3-fluoro-N-((R)-1-((1s,4S)-4-(6-fluoroquinolin-4-yl)cyclohexyl)ethyl)cyclobutanecarboxamide]: the IC50 came to 570 nM.
For `COc1ccc(CN(C(=O)NC2CCCC2)[C@H]2CC[C@H](c3ccccc3)CC2)cc1` [Example 14, 3-cyclopentyl-1-(4-methoxybenzyl)-1-((1r,4r)-4-phenylcyclohexyl)-urea], the IC50 turned out to be 120 nM.
Consider `CC1(CC(=O)N[C@@]23C[C@@H]4C[C@@H](C[C@@](O)(C4)C2)C3)CCN(c2ccnc3ccc(F)cc23)CC1` [Example 17, 2-(1-(6-Fluoroquinolin-4-yl)-4-methylpiperidin-4-yl)-N-((1r,3s,5R,7S)-3-hydroxyadamantan-1-yl)acetamide], for which the 50% inhibitory concentration (IC50) amounted to 390 nM.
Turning to `C[C@@H](NC(=O)C1CC1)[C@H]1CC[C@@H](c2ccnc3ccc(F)cc32)CC1` [Example 6, N-((R)-1-((1s,4S)-4-(6-fluoroquinolin-4-yl)cyclohexyl)ethyl)cyclopropanecarboxamide], the IC50 was 810 nM.
`C[C@H](NC(=O)C1CCC(O)CC1)C1CCC(c2ccnc3ccc(F)cc23)CC1` (stereo partly drawn) [Example 11, (1s,4S)-N-((R)-1-((1s,4S)-4-(6-fluoroquinolin-4-yl)cyclohexyl)ethyl)-4-hydroxycyclohexane carboxamide]: the IC50 came out at 750 nM.
The same measure, in the same setting: then `CCCC(C(=O)NC12CC3CC(CC(C3)C1)C2)N1CCN(c2ccnc3ccc(F)cc23)CC1` (single isomer, unassigned) [Example 19], with 1800 nM; and `CCCC(C(=O)NC12CC3CC(CC(C3)C1)C2)N1CCN(c2ccnc3ccc(F)cc23)CC1` (single isomer, unassigned) [Example 20], with 1900 nM.
On to `C[C@@H](NC(=O)C1CCC1)[C@H]1CC[C@@H](c2ccnc3ccc(F)cc32)CC1` [Example 10, N-((R)-1-((1s,4S)-4-(6-fluoroquinolin-4-yl)cyclohexyl)ethyl) cyclobutanecarboxamide], for which the IC50 is 190 nM.
In the case of `COc1ccc(CN(C(=O)NC2CC2)[C@H]2CC[C@H](c3ccccc3)CC2)cc1` [Example 15, 3-cyclopropyl-1-(4-methoxybenzyl)-1-((1r,4r)-4-phenylcyclohexyl)-urea], the IC50 was 240 nM.
Consider `C[C@@H](NC(=O)[C@H]1CC[C@H](O)CC1)[C@H]1CC[C@@H](c2ccnc3ccc(F)cc32)CC1` [Example 12, (1r,4R)-N-((R)-1-((1s,4S)-4-(6-fluoroquinolin-4-yl)cyclohexyl)ethyl)-4-hydroxycyclohexane carboxamide], for which the IC50 was found to be 170 nM.
With `CC1(CC(=O)NC23CC4CC(CC(C4)C2)C3)CCN(c2ccnc(C(F)(F)F)c2)CC1` [Example 18, N-((3 s,5 s, 7 s)-Adamantan-1-yl)-2-(4-methyl-1-(2-(trifluoromethyl)pyridin-4-yl)piperidin-4-yl)acetamide], the IC50 amounted to 180 nM.
On the same count and under the same terms, then `COc1ccc(N2CCC(C(=O)N[C@H](C)[C@H]3CC[C@@H](c4ccnc5ccc(F)cc54)CC3)CC2)cc1` [Example 3, N—((R)-1-((1s,4S)-4-(6-Fluoroquinolin-4-yl)cyclohexyl)ethyl)-1-(4-methoxyphenyl)piperidine-4-carboxamide], with 800 nM.
